Assay results taken from patent US20240327423A1, “A SERIES OF PYRROLE DERIVATIVES AND THEIR PREPARATION METHOD AND THERAPEUTIC USE” (SHENZHEN SUNGENING BIO-MEDICAL CO., LTD, priority 2020, published 2024).
Converted amounts (≈) assume the structure as drawn.

Experiments:
[1] = system: Aspergillus fumigatus (ATCC-204305); assay: Measurement of minimum inhibitory concentration (MIC), ATCC 204305; format: cell-based; conditions: ATCC204305; Aspergillus fumigatus ATCC 204305, 35° C., 48 hours
Procedure: New streaks are made with glycerol stock solution of the strains of Aspergillus [NT] MYA-4609/AF 293/CBS 101355) on Sabouraud's dextrose agar (SDA), incubate at 35° C. and a humidity of 40-70% for 72 hours. Other strains are processed as the same as AF293. RPMI1640: one packet of RPMI1640 powder is dissolved in 1 L purified water and mixed well, add 0.165M MOPS, adjust the pH to 7.0, sterilize by filtration with 0.22 um membrane, and store at 4° C. for no more than 3 months. Physiological saline: weigh 9 g of sodium chloride powder and dissolve in 1 L of purified water, and mixed well. […] Dissolve the test compound and stock solution of one control compound with DMSO and obtain solutions at a concentration of 12.8 mg/mL The maximum concentration of each compound is 0.8 mg/mL (e.g., 150 μL of dimethyl sulfoxide+10 uL of 12.8 mg/mL compound/control). […] Repeat the above steps up to column 11 to give 2× serial dilutions. 2 μL of the above 2× serial dilutions are injected into each hole of the corresponding test plate using a multichannel pipette. Drop 5 ml of saline on the Aspergillus fumigatus SDA plate. The spores were carefully wiped off from the surface of the plate with an L-shaped coating rod. Then the suspension is transferred into a sterile tube. After shaking, let the tube stand for 5 to 10 minutes. Count the number of spores in the upper suspension with a hemocytometer and check the purity. Adjust the inoculum concentration to 0.2-2.5×10^4 spores/mL. Inject 198 μL of diluted inoculum into each holes of the corresponding test plate using a multichannel pipette. Incubate at 35° C. for 48 hours. […] To facilitate scoring of the presence or absence of growth on the wall, a magnifying glass is used. The tested 96-well microplates were photographed and the optical density at 530 nm is read with an enzyme marker (Tecan Spark).

[2] = system: Aspergillus fumigatus ATCCMYA-4690 (AF293); assay: Survival rate experiment I of mouse bloodstream infection model with Aspergillus fumigatus; format: in vivo; conditions: immunosuppressed male CD-1 mouse; for day 7 survival rate: 3 mg/kg orally twice daily for 6 days, started 24 hours after infection; for survival time of mouses: 3 mg/kg orally twice daily
Procedure: Test Case 5: Survival Rate Experiment I of Mouse Bloodstream Infection Model with Aspergillus fumigatus • Experimental animals: male CD-1 mouse, 6-8 weeks old, 10 animals per group. • Induction of immunosuppression: the day of infection is defined as day 0, and mouses are injected intraperitoneally with corresponding doses of cyclophosphamide on day −4 (150 mg/kg), day −1 (100 mg/kg) and day 2 (100 mg/kg). • Microbial pathogen: Aspergillus fumigatus ATCCMYA-4690 (AF293). • Collection conditions of inoculum: culture on SDA culture plates, incubate at 25° C. for at least 7 days, collect with PBS+0.1% Tween 20, and count microscopically; • Inoculation level, route and volume: 3.60E+05 CFU/mouse, tail vein injection, injection volume of 100 μL/mouse; • Treatment: Treatment is started 24 hours after infection, and test compounds are dissolved in PEG400 (0.3 mg/mL), and used for administration orally to mouses at 3 mg/kg, twice daily for 6 days. The administrated mouses are observed for 8 hours.

[3] = system: Aspergillus fumigatus ATCCMYA-4690 (AF293); assay: Survival rate experiment II of mouse bloodstream infection model with Aspergillus fumigatus; format: in vivo; conditions: for day 7 survival rate: 3 mg/kg (bid) orally for 6 days, started 24 hours after infection; for survival time of mouses: oral, bid
Procedure: Test Case 6: Survival Rate Experiment II of Mouse Bloodstream Infection Model with Aspergillus fumigatus • Animal for experiment: male CD-1 mouse, 6-8 weeks old, 10 animals per group. • Induction of immunosuppression: the day of infection is defined as day 0, and mouses are injected intraperitoneally with corresponding doses of cyclophosphamide on day −4 (150 mg/kg), day −1 (100 mg/kg), and day 2 (100 mg/kg), respectively. • Microbial pathogen: Aspergillus fumigatus ATCCMYA-4690 (AF293). • Collection conditions of inoculum: culture on SDA culture plates, incubate at 25° C. for at least 7 days, collect with PBS+0.1% Tween 20, and count microscopically; • Inoculation level, route and volume: 3.90E+05 CFU/mouse, tail vein injection, injection volume of 100 μL/mouse; • Treatment: Treatment is started 24 hours after infection, and test compounds are dissolved in PEG400 (0.3 mg/mL), […] The administrated mouses are observed for 8 hours.

[4] = immunosuppressed male CD-1 mouse

Row | SMILES | MIC [1] | day 7 survival rate [2] | day 7 survival rate [3, 4] | survival rate ([3]; immunosuppressed male CD-1 mouse, 10 mg/kg (bid)) | survival time of mouses [3, 4] | dose dependence of survival ([3]; three doses of 1 mg/kg, 3 mg/kg and 10 mg/kg) | survival time of mouses [2]
1 | Cc1cc(-c2ccccc2)c(C(=O)C(=O)Nc2cc(F)c3c(c2)OC[C@H]2CN(c4ncc(F)cn4)CCN32)n1C [Example 5] | 0.016 µg/mL (≈ 0.0294 µM) | 0% | – | – | – | – | –
2 | Cc1cc(-c2ccccc2)c(C(=O)C(=O)Nc2ccc3c(c2)C[C@H]2CN(c4ncc(F)cn4)CCN32)n1C [Example 33, (S)-2-(1,5-dimethyl-3-phenyl-1H-pyrrol-2-yl)-N-(2-(5-fluoropyrimidin-2-yl)-1,2,3,4,10,10a-hexahydropyrazino[1,2-a]indol-8-yl)-2-oxoacetamide] | 0.016 µg/mL (≈ 0.0313 µM) | 40% | 30% | 80% | prolong the survival time | dose-dependent relationship | prolong the survival time
3 | Cc1cc(-c2ccccc2)c(C(=O)C(=O)Nc2ccc(N3CCN(c4ncc(F)cn4)CC3)cc2)n1C [Example F901318, reference compound] | 0.016 µg/mL (≈ 0.0321 µM) | 0% | 0% | – | prolong the survival time | – | prolong the survival time
